Values of other authors, collected in PubChem BioAssay AID1259409 (Chemical Carcinogenesis Research Information System (CCRIS), 2018).

Tested on: rodent chemically induced tumor inhibition, incidence and multiplicity
Assay: CCRIS tumor inhibitor studies
Conditions: for tumour outcome (control, treated, inhibition, significance): Species: RAT

In the case of C=CCSSCC=C, the “tumour outcome (control, treated, inhibition, significance)” value (Carcinogen: 2-AMINO-1-METHYL-6-PHENYLIMIDAZO[4,5-B]PYRIDINE [105650-23-5], Dose [Inhibitor]: 200 PPM IN DIET FOR 4 WK BEGINNING WK PRIOR TO FIRST CARCINOGEN DOSE (STUDY DURATION: 25 WK), Route [Inhibitor]: ORAL, Strain/Sex: SPRAGUE-DAWLEY/FEMALE, Target Tissue: Type of Lesion: MAMMARY GLAND: FIBROADENOMA OR DUCTAL CARCINOMA, Dose [Carcinogen]: 85 MG/KG BW 2X/WK FOR 4 WK (STUDY DURATION: 25 WK), Promoter: NONE) is given as 68%, 52%, 24%, not significant, the “tumour outcome (control, treated, inhibition, significance)” value (Carcinogen: 2-AMINO-1-METHYL-6-PHENYLIMIDAZO[4,5-B]PYRIDINE, 105650-23-5, Dose [Inhibitor]: 0, 200 PPM IN HIGH FAT DIET FOR 4 WK BEGINNING 1 WK PRIOR TO CARCINOGEN TREATMENT (STUDY DURATION: 25 WK), Route [Inhibitor]: ORAL, Strain/Sex: SPRAGUE-DAWLEY/FEMALE, Target Tissue: Type of Lesion: MAMMARY GLAND: CARCINOMA, Dose [Carcinogen]: 85 MG/KG BW IN CORN OIL 8 TIMES IN 10 D, Promoter: NONE USED) is given as 21/31 (68%), 16/31 (52%), 24%, not calculated and the “tumour outcome (control, treated, inhibition, significance)” value (Carcinogen: 2-AMINO-1-METHYL-6-PHENYLIMIDAZO[4,5-B]PYRIDINE, 105650-23-5, Dose [Inhibitor]: 0, 200 PPM IN HIGH FAT DIET FOR 4 WK BEGINNING 1 WK PRIOR TO CARCINOGEN TREATMENT (STUDY DURATION: 25 WK), Route [Inhibitor]: ORAL, Strain/Sex: SPRAGUE-DAWLEY/FEMALE, Target Tissue: Type of Lesion: MAMMARY GLAND: FIBROADENOMA, Dose [Carcinogen]: 85 MG/KG BW IN CORN OIL 8 TIMES IN 10 D, Promoter: NONE USED) is given as 3/31 (10%), 0/31 (0%), 100%, not calculated. The “tumour outcome (control, treated, inhibition, significance)” value (Carcinogen: 7,12-DIMETHYLBENZ[A]ANTHRACENE, 57-97-6, Dose [Inhibitor]: 0, 1.8 MMOL/KG BW IN CORN OIL 96, 48 AND 24 HR PRIOR TO CARCINOGEN TREATMENT (STUDY DURATION: 25 WK), Route [Inhibitor]: GAVAGE, Strain/Sex: SPRAGUE-DAWLEY/FEMALE, Target Tissue: Type of Lesion: MAMMARY GLAND: ADENOCARCINOMA, Dose [Carcinogen]: 10 MG ONCE, Promoter: NONE USED) was 92%, 36%, 61%, p<0.05, the “tumour outcome (control, treated, inhibition, significance)” value (Carcinogen: AZOXYMETHANE, 25843-45-2, Dose [Inhibitor]: 0, 100 PPM IN DIET BEGINNING 2 WK PRIOR TO CARCINOGEN TREATMENT AND CONTINUING FOR DURATION OF STUDY (STUDY DURATION: 56, Route [Inhibitor]: ORAL, Strain/Sex: F344/MALE, Target Tissue: Type of Lesion: COLON: INVASIVE ADENOCARCINOMA, Dose [Carcinogen]: 15 MG/KG 1/WK FOR 2 WK, Promoter: NONE USED) was 34%, 11%, 68%, p<0.05 and the “tumour outcome (control, treated, inhibition, significance)” value (Carcinogen: AZOXYMETHANE, 25843-45-2, Dose [Inhibitor]: 0, 100 PPM IN DIET BEGINNING 2 WK PRIOR TO CARCINOGEN TREATMENT AND CONTINUING FOR DURATION OF STUDY (STUDY DURATION: 56, Route [Inhibitor]: ORAL, Strain/Sex: F344/MALE, Target Tissue: Type of Lesion: COLON: NONINVASIVE ADENOCARCINOMA, Dose [Carcinogen]: 15 MG/KG 1/WK FOR 2 WK, Promoter: NONE USED) was 53%, 53%, 0%, not significant. For the same compound, the “tumour outcome (control, treated, inhibition, significance)” value (Carcinogen: AZOXYMETHANE, 25843-45-2, Dose [Inhibitor]: 0, 200 PPM IN DIET BEGINNING 2 WK PRIOR TO CARCINOGEN TREATMENT AND CONTINUING FOR DURATION OF STUDY (STUDY DURATION: 56, Route [Inhibitor]: ORAL, Strain/Sex: F344/MALE, Target Tissue: Type of Lesion: COLON: INVASIVE ADENOCARCINOMA, Dose [Carcinogen]: 15 MG/KG 1/WK FOR 2 WK, Promoter: NONE USED) was 34%, 6%, 82%, p<0.01, the “tumour outcome (control, treated, inhibition, significance)” value (Carcinogen: AZOXYMETHANE, 25843-45-2, Dose [Inhibitor]: 0, 200 PPM IN DIET BEGINNING 2 WK PRIOR TO CARCINOGEN TREATMENT AND CONTINUING FOR DURATION OF STUDY (STUDY DURATION: 56, Route [Inhibitor]: ORAL, Strain/Sex: F344/MALE, Target Tissue: Type of Lesion: COLON: NONINVASIVE ADENOCARCINOMA, Dose [Carcinogen]: 15 MG/KG 1/WK FOR 2 WK, Promoter: NONE USED) was 53%, 58%, -9%, not significant and the “tumour outcome (control, treated, inhibition, significance)” value (Carcinogen: DIETHYLNITROSAMINE, 55-18-5, N-METHYL-N-NITROSOUREA, 684-93-5, N,N'-DIMETHYLHYDRAZINE, 540-73-8, N-BUTYL-N-(4-HYDR, Carcinogen: DIETHYLNITROSAMINE, 55-18-5, N-METHYL-N-NITROSOUREA, 684-93-5, N,N'-DIMETHYLHYDRAZINE, 540-73-8, N-BUTYL-N-(4-HYDR, Dose [Inhibitor]: 0, 50 MG/KG BW IN CORN OIL 3/WK FOR 6 WK BEGINNING POST CARCINOGEN TREATMENT (STUDY DURATION: 28 WK), Route [Inhibitor]: GAVAGE, Strain/Sex: F344/MALE, Target Tissue: Type of Lesion: KIDNEY: RENAL CELL ADENOMA, Dose [Carcinogen]: 100 MG/KG BW DEN ONCE, 20 MG/KG BW MNU ONCE ON D 2, 5, 8 AND 11, 40 MG/KG BW DMH ON D 14, 17, 20 AND 23, 0.05% BHBN I, Dose [Carcinogen]: 100 MG/KG BW DEN ONCE, 20 MG/KG BW MNU ONCE ON D 2, 5, 8 AND 11, 40 MG/KG BW DMH ON D 14, 17, 20 AND 23, 0.05% BHBN I, Promoter: NONE USED) was 4/20 (20%), 0/19 (0%), 100%, not calculated. The “tumour outcome (control, treated, inhibition, significance)” value (Carcinogen: DIETHYLNITROSAMINE, 55-18-5, N-METHYL-N-NITROSOUREA, 684-93-5, N,N'-DIMETHYLHYDRAZINE, 540-73-8, N-BUTYL-N-(4-HYDR, Carcinogen: DIETHYLNITROSAMINE, 55-18-5, N-METHYL-N-NITROSOUREA, 684-93-5, N,N'-DIMETHYLHYDRAZINE, 540-73-8, N-BUTYL-N-(4-HYDR, Dose [Inhibitor]: 0, 50 MG/KG BW IN CORN OIL 3/WK FOR 6 WK BEGINNING POST CARCINOGEN TREATMENT (STUDY DURATION: 28 WK), Route [Inhibitor]: GAVAGE, Strain/Sex: F344/MALE, Target Tissue: Type of Lesion: LARGE INTESTINE: ADENOMA, Dose [Carcinogen]: 100 MG/KG BW DEN ONCE, 20 MG/KG BW MNU ONCE ON D 2, 5, 8 AND 11, 40 MG/KG BW DMH ON D 14, 17, 20 AND 23, 0.05% BHBN I, Dose [Carcinogen]: 100 MG/KG BW DEN ONCE, 20 MG/KG BW MNU ONCE ON D 2, 5, 8 AND 11, 40 MG/KG BW DMH ON D 14, 17, 20 AND 23, 0.05% BHBN I, Promoter: NONE USED) was 6/20 (30%), 1/19 (5%), 83%, p<0.01, the “tumour outcome (control, treated, inhibition, significance)” value (Carcinogen: DIETHYLNITROSAMINE, 55-18-5, N-METHYL-N-NITROSOUREA, 684-93-5, N,N'-DIMETHYLHYDRAZINE, 540-73-8, N-BUTYL-N-(4-HYDR, Carcinogen: DIETHYLNITROSAMINE, 55-18-5, N-METHYL-N-NITROSOUREA, 684-93-5, N,N'-DIMETHYLHYDRAZINE, 540-73-8, N-BUTYL-N-(4-HYDR, Dose [Inhibitor]: 0, 50 MG/KG BW IN CORN OIL 3/WK FOR 6 WK BEGINNING POST CARCINOGEN TREATMENT (STUDY DURATION: 28 WK), Route [Inhibitor]: GAVAGE, Strain/Sex: F344/MALE, Target Tissue: Type of Lesion: LARGE INTESTINE: CARCINOMA, Dose [Carcinogen]: 100 MG/KG BW DEN ONCE, 20 MG/KG BW MNU ONCE ON D 2, 5, 8 AND 11, 40 MG/KG BW DMH ON D 14, 17, 20 AND 23, 0.05% BHBN I, Dose [Carcinogen]: 100 MG/KG BW DEN ONCE, 20 MG/KG BW MNU ONCE ON D 2, 5, 8 AND 11, 40 MG/KG BW DMH ON D 14, 17, 20 AND 23, 0.05% BHBN I, Promoter: NONE USED) was 8/20 (40%), 3/19 (16%), 60%, not calculated and the “tumour outcome (control, treated, inhibition, significance)” value (Carcinogen: DIETHYLNITROSAMINE, 55-18-5, N-METHYL-NITROSOUREA ;684-93-5, N,N'-DIMETHYLHYDRAZINE, 540-73-8, N-BUTYL-N-(4-HYDROXY, Carcinogen: DIETHYLNITROSAMINE, 55-18-5, N-METHYL-NITROSOUREA ;684-93-5, N,N'-DIMETHYLHYDRAZINE, 540-73-8, N-BUTYL-N-(4-HYDROXY, Dose [Inhibitor]: 0, 50 MG/KG BW IN CORN OIL 3/WK FOR 6 WK BEGINNING POST CARCINOGEN TREATMENT (STUDY DURATION: 28 WK), Route [Inhibitor]: GAVAGE, Strain/Sex: F344/MALE, Target Tissue: Type of Lesion: KIDNEY: NEPHROBLASTOMA, Dose [Carcinogen]: 100 MG/KG BW DEN ONCE, 20 MG/KG BW MNU ONCE ON D 2, 5, 8 AND 11, 40 MG/KG BW DMH ON D 14, 17, 20 AND 23, 0.05% BHBN I, Dose [Carcinogen]: 100 MG/KG BW DEN ONCE, 20 MG/KG BW MNU ONCE ON D 2, 5, 8 AND 11, 40 MG/KG BW DMH ON D 14, 17, 20 AND 23, 0.05% BHBN I, Promoter: NONE USED) was 5/20 (25%), 0/19 (0%), 100%, p<0.05. For the same compound, the “tumour outcome (control, treated, inhibition, significance)” value (Carcinogen: DIETHYLNITROSAMINE, 55-18-5, N-METHYL-NITROSOUREA, 684-93-5, N,N'-DIMETHYLHYDRAZINE, 540-73-8, N-BUTYL-N-(4-HYDROX, Carcinogen: DIETHYLNITROSAMINE, 55-18-5, N-METHYL-NITROSOUREA, 684-93-5, N,N'-DIMETHYLHYDRAZINE, 540-73-8, N-BUTYL-N-(4-HYDROX, Dose [Inhibitor]: 0, 50 MG/KG BW IN CORN OIL 3/WK FOR 6 WK BEGINNING POST CARCINOGEN TREATMENT (STUDY DURATION: 28 WK), Route [Inhibitor]: GAVAGE, Strain/Sex: F344/MALE, Target Tissue: Type of Lesion: KIDNEY: RENAL CELL CARCINOMA, Dose [Carcinogen]: 100 MG/KG BW DEN ONCE, 20 MG/KG BW MNU ONCE ON D 2, 5, 8 AND 11, 40 MG/KG BW DMH ON D 14, 17, 20 AND 23, 0.05% BHBN I, Dose [Carcinogen]: 100 MG/KG BW DEN ONCE, 20 MG/KG BW MNU ONCE ON D 2, 5, 8 AND 11, 40 MG/KG BW DMH ON D 14, 17, 20 AND 23, 0.05% BHBN I, Promoter: NONE USED) was 1/20 (5%), 0/19 (0%), 100%, not calculated, the “tumour outcome (control, treated, inhibition, significance)” value (Carcinogen: N-METHYL-N-NITROSOUREA, 684-93-5, Dose [Inhibitor]: 0, 57 UMOL/KG DIET FOR 25 WK BEGINNING 2 WK PRIOR TO CARCINOGEN DOSE (STUDY DURATION: 25 WK), Route [Inhibitor]: ORAL, Strain/Sex: SPRAGUE-DAWLEY/FEMALE, Target Tissue: Type of Lesion: MAMMARY GLAND: TUMOR, Dose [Carcinogen]: 15 MG/KG BW ONCE, Promoter: NONE USED) was 81%, 38%, 53%, p<0.05 and the outcome (Carcinogen: N-methyl-N-nitrosourea (684-93-5), Dose [Inhibitor]: 0, 150 mg/kg bw by gavage 2 x a wk for 16 wks of hormones and MNU, study duration 16 wks, Dose [Inhibitor]: 0, 150 mg/kg bw by gavage 2 x a wk for 16 wks of hormones and MNU, study duration 16 wks, Route [Inhibitor]: Oral, Species: Rat, Strain/Sex: Sprague-Dawley/Male, Target Tissue: Type of Lesion: Prostate: Prostatic intraepithelial neoplasia, Dose [Carcinogen]: 150 mg/kg bw once, Promoter: Cyproterone acetate (427-51-0) and testosterone propionate (57-85-2)) was “dorsolateral prostate: 40% (hormones + mnu); 10% (hormones + mnu + diallyl sulfi”.
